Assay results reported in paper PMC5740067 (Scientific Reports, 2017).
Where two headings read alike, the source gives them in different places.

Tests used:
[1] = molecular target: T1, OccJ WT (Agrobacterium tumefaciens, UniProt P0A4F8); test: biochemical; assay type: binding
T1 construct: The mature PBP OccJ (256 aa without the signal peptide) expression plasmid was obtained by cloning the occJ gene lacking the first twenty residues; hexahistidine (C); made in house; host or cells: E. coli BL21
T1 sequence (P0A4F8 21-276): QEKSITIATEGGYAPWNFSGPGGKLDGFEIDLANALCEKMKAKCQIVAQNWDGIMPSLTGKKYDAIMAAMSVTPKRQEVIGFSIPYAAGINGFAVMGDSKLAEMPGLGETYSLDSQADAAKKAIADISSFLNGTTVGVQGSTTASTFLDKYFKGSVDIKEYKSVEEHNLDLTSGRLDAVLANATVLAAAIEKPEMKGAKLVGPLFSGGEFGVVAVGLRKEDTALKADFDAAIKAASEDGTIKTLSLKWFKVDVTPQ
Protocol: (§1) Binding of ligands to OccJ, NocT, LAO and protein mutants was monitored by autofluorescence by exciting the protein at a wavelength of 295 nm and monitoring the quenching of fluorescence emission of tryptophans at 335 nm. All experiments were performed at 20 °C in 96 wells plates (1/2 Area Plate-96F, Perkin Elmer) using Tecan Infinite M1000 reader (Tecan), in 50 mM Tris-HCl pH 8.0, 150 mM NaCl buffer with a fixed amount of proteins (1 µM) and increasing concentrations of ligand. […] The data were analysed using Origin® 7 software and fitted to the equation f = ΔFluorescencemax * abs(x)/(K D + abs(x)).

[2] = molecular target: T2, OccJ N202D (Agrobacterium tumefaciens, UniProt P0A4F8, N202D); assay type: binding; conditions: ITC, 20 °C
T2 construct: The mature LAO expression plasmid, LAO-Q122A, OccJ-S91G and OccJ-N202D were chemically synthesized; pET-28a); host or cells: E. coli BL21
T2 sequence (P0A4F8 21-276 N202D): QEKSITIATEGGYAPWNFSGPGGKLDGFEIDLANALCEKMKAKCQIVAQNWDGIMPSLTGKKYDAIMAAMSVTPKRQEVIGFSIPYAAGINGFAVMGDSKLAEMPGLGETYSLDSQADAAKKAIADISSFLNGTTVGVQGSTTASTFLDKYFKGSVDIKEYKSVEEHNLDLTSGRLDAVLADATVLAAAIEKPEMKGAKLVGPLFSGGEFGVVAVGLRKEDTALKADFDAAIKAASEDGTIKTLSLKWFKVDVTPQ
Protocol: (§2) Isothermal titration microcalorimetry experiments were performed with an ITC200 isothermal titration calorimeter from MicroCal (GE Healthcare). The experiments were carried out at 20 °C. Protein concentration in the microcalorimeter cell (0.2 mL) varied from 20 to 150 µM. Nineteen injections of 2 µL of ligand solution (amino acids, opines and octopine derivatives) at concentration ranging from 240 µM to 1.5 mM were performed at intervals of 180 s while stirring at 500 rpm. The experimental data were fitted to theoretical titration curves with software supplied by MicroCal (ORIGIN®). This software uses the relationship between the heat generated by each injection and ΔH (enthalpy change in kcal/mol), Ka (the association binding constant in M^−1), n (the number of binding sites), total protein concentration and free and total ligand concentrations.

[3] = molecular target: T3, LAO WT (Salmonella typhimurium, UniProt P02911); test: biochemical; assay type: binding, Salmonella enterica
T3 construct: The mature LAO expression plasmid, LAO-Q122A, OccJ-S91G and OccJ-N202D were chemically synthesized; pET-28a); host or cells: E. coli BL21
T3 sequence (P02911 23-260): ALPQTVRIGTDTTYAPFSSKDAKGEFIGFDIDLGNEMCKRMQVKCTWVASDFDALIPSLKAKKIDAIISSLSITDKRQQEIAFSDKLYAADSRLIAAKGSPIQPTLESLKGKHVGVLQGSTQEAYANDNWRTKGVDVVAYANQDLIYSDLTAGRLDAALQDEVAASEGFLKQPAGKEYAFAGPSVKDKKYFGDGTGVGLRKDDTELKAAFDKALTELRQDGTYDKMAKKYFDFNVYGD
Protocol: as §2

[4] = molecular target: T4, LAO Q122A (Salmonella typhimurium, UniProt P02911, Q144A); test: LAO Q122A ligand binding, ITC; parameters: species or system Salmonella enterica
T4 construct: The mature LAO expression plasmid, LAO-Q122A, OccJ-S91G and OccJ-N202D were chemically synthesized; pET-28a); host or cells: E. coli BL21
T4 sequence (P02911 23-260 Q144A): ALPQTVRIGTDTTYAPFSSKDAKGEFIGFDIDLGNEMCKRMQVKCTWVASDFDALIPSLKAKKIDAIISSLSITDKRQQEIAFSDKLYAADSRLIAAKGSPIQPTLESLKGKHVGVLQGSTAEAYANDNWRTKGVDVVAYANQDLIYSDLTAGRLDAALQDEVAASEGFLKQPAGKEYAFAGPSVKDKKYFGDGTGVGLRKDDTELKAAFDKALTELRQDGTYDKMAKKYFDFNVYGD
Protocol: as §2

[5] = molecular target: T5, OccJ S91G (Agrobacterium tumefaciens, UniProt P0A4F8, S91G); test: OccJ S91G ligand binding, fluorescence titration; conditions: intrinsic protein fluorescence titration; 20 °C; pH 8.0
T5 construct: The mature LAO expression plasmid, LAO-Q122A, OccJ-S91G and OccJ-N202D were chemically synthesized; pET-28a); host or cells: E. coli BL21
T5 sequence (P0A4F8 21-276 S91G): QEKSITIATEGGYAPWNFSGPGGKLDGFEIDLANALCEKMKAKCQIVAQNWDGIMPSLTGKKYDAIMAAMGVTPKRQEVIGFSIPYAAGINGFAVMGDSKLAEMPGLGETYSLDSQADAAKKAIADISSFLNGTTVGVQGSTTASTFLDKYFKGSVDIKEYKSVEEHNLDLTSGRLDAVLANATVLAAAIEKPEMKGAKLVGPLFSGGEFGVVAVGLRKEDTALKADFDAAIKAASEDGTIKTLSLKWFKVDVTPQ
Protocol: as §1

[6] = molecular target: T1, OccJ WT; test: OccJ WT ligand binding, isothermal titration microcalorimetry; conditions: ITC, 20 °C
Protocol: as §2

[7] = molecular target: LAO; parameters: method as in PMID 1400387; conditions: ref [20]; cited from earlier work
[8] = molecular target: T6, NocT WT (Agrobacterium fabrum, UniProt P35120); conditions: F/ITC; amino acids; ref [6]; cited from earlier work
T6 construct: Cloning of mature OccJ, NocT-G97S, OccJ-S91G, OccJ-N202D, LAO and LAO-Q122A; made in house
T6 sequence (P35120 26-283): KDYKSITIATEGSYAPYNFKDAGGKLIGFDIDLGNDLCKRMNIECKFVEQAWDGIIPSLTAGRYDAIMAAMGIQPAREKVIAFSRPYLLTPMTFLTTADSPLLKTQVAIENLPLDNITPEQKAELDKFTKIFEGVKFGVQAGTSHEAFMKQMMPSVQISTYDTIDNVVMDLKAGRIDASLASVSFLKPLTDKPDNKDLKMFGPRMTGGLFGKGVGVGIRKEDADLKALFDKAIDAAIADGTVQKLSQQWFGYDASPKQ

[9] = molecular target: T6, NocT WT; assay type: binding, Agrobacterium tumefaciens; conditions: fluorescence titration; 20 °C; pH 8.0; octopine family members and analogues; read-out: Kd (F)
Protocol: as §1

[10] = molecular target: T6, NocT WT; assay type: binding, Agrobacterium tumefaciens; conditions: ITC, 20 °C
Protocol: as §2

[11] = intrinsic protein fluorescence titration, 20 °C, 50 mM Tris-HCl pH 8.0, 150 mM NaCl, 1 µM protein
[12] = intrinsic protein fluorescence titration, 20 °C, 50 mM Tris-HCl pH 8.0, 150 mM NaCl, 1 µM protein, read-out: K D (F)

Structure (SMILES)	Kd [1]	K D (F) [5]	Enthalpy (ΔH) [6]	Entropic contribution (-TΔS) [6]	Entropy (ΔS) [6]	Free enthalpy (ΔG) [6]	Kd [6]	previous reported affinity [7]	K D, amino acids [8]	K D (F) [1, 11]	Kd [1, 12]	Kd [9]	also measured
N=C(N)NCCC[C@H](N)C(=O)O [L-arginine]	7.2 ± 1 µM	can no longer bind	-4.208 kcal/mol	-1.755 kcal/mol	5.99 cal/mol/deg	-5.964 kcal/mol	35.7 µM	nanomolar range	does not interact	–	–	–	Enthalpy (ΔH) [2]: -0.632 kcal/mol; Entropic contribution (-TΔS) [2]: -5.696 kcal/mol; Entropy (ΔS) [2]: 19.3 cal/mol/deg; Free enthalpy (ΔG) [2]: -6.328 kcal/mol; Kd [3]: 0.024 ± 0.002 µM; Enthalpy (ΔH) ([3]; ITC, 20 °C): -10.91 kcal/mol; Entropic contribution (-TΔS) ([3]; ITC, 20 °C): 0.703 kcal/mol; Entropy (ΔS) ([3]; ITC, 20 °C): -2.4 cal/mol/deg; Free enthalpy (ΔG) ([3]; ITC, 20 °C): -10.207 kcal/mol; Kd [4]: 0.12 ± 0.01 µM; fold lower affinity of LAO-Q122A compared with WT ([4]; ITC): 5 fold; Enthalpy (ΔH) ([4]; ITC, 20 °C): -6.853 kcal/mol; Entropic contribution (-TΔS) ([4]; ITC, 20 °C): -2.433 kcal/mol; Entropy (ΔS) ([4]; ITC, 20 °C): 8.3 cal/mol/deg; Free enthalpy (ΔG) ([4]; ITC, 20 °C): -9.286 kcal/mol
NCCCC[C@H](N)C(=O)O [L-lysine]	7.5 ± 2.1 µM	can no longer bind	-4.92 kcal/mol	-0.645 kcal/mol	2.20 cal/mol/deg	-5.565 kcal/mol	71 µM	nanomolar range	does not interact	–	–	–	–
N[C@@H](Cc1c[nH]cn1)C(=O)O [histidine]	–	–	–	–	–	–	–	–	–	No fluorescence intensity change was detected	–	–	–
CC(N[C@@H](Cc1cnc[nH]1)C(=O)O)C(=O)O (some centres unmarked) [histopine]	–	–	-0.854 kcal/mol	-3.81 kcal/mol	13 cal/mol/deg	-4.664 kcal/mol	326 µM	–	–	micromolar range	33.1 ± 3.5 µM	84.4 ± 6.7 µM	–
N=C(N)NCCCC[C@H](NCC(=O)O)C(=O)O [homo-noroctopine]	–	–	-4.115 kcal/mol	-2.207 kcal/mol	7.53 cal/mol/deg	-6.322 kcal/mol	19.3 ± 1.4 µM	–	–	–	4.63 ± 0.42 µM	21.3 ± 2.1 µM	Enthalpy (ΔH) [10]: -1.195 kcal/mol; Entropic contribution (-TΔS) [10]: -4.309 kcal/mol; Entropy (ΔS) [10]: 14.7 cal/mol/deg; Free enthalpy (ΔG) [10]: -5.504 kcal/mol; Kd [10]: 79 ± 14 µM
C[C@@H](N[C@@H](CCCCN)C(=O)O)C(=O)O [lysopine]	–	–	-4.832 kcal/mol	-4.455 kcal/mol	15.2 cal/mol/deg	-9.287 kcal/mol	0.11 ± 0.02 µM	–	–	–	0.14 ± 0.01 µM	11.2 ± 3.5 µM	Kd ([1]; fluorescence titration, read-out: apparent dissociation constant K D): 0.14 ± 0.01 µM
